Measurements as given in patent US20220307066A1, “AN ENZYMATIC ASSAY TO MEASURE LONG-TERM ADHERENCE TO PRE EXPOSURE PROPHYLAXIS AND ANTIRETROVIRAL THERAPY” (University of Washington, priority 2019, published 2022).
Where “and” joins values, the source holds several entries; their conditions need not be identical. Equal values may be shown once. Read-outs that look alike come from different tables or passages of the source.

Legend:
HIV-1 RT [1] = biological target: T1, HIV-1 RT (Human immunodeficiency virus type 1 group M subtype B, UniProt P04585); assay: RESTRICT assay with TFV-DP spiked in diluted whole blood (0.25% final); format: biochemical; conditions: 0.25% blood, 100 nM dNTP, N = 4
T1 construct: Recombinant reverse transcriptase protein obtained through the NIH AIDS Reagent Program; purchased NIH AIDS Reagent Program, Division of AIDS, NIAID, NIH
Description: [sequence] assays were conducted with TFV-DP (166403-66-3, BOC Sciences Inc.) using 5 μL of DNA template, 5 μL of primer, 20 μL of dNTPs solution, 5 μL of TFV-DP, and 5 μL of HIV-1 RT. […] Serial dilutions of TFV-DP in buffer spanning a concentration range of 1-10,000 nM were prepared to span two orders of magnitude above and below the clinically relevant range for adherence measurement as described in pharmacokinetic studies. […] [sequence] assay optimization experiments were completed at 100, 300, 1560, and 6250 nM dNTP concentration.
Fluorescence from [sequence] assay data was normalized to allow comparison of data points gathered at different dNTP concentrations as follows,
HIV-negative, human whole blood (BioIVT, Westbury, N.Y.) was diluted in nuclease-free water (3098, Sigma) to lyse RBCs and reduce unwanted inhibition of RT activity by blood components such as immunoglobulins. Blood was mixed with the water by vortexing and incubating for 5 minutes to lyse RBCs.
Five μL of TFV-DP were spiked in 2% blood to 35 μL of master mix so that the final concentration of blood in the [sequence] assay was 0.25%. […]

HIV-1 RT [2] = biological target: T1, HIV-1 RT; assay: RESTRICT assay on whole blood of study participants (clinical samples); format: biochemical
From the text: The RESTRICT assay detects TFV-DP drug concentrations based on its mechanism of action on HIV RT. See examples above and Olanrewaju AO, et al. An enzymatic assay for rapid measurement of antiretroviral drug levels. ACS Sens. April 2020. TFV-DP causes chain termination when HIV RT synthesizes viral double stranded DNA (dsDNA). The RESTRICT assay provides all the reagents required for dsDNA synthesis—a DNA template, primers, nucleotides, recombinant HIV RT enzyme, and appropriate buffers—and measures TFV-DP concentrations in a patient's blood using intercalating fluorescence dyes based on the extent of DNA synthesis. At low TFV-DP concentrations, full-length dsDNA is formed and binds to many intercalating dye molecules resulting in high fluorescence. Meanwhile, at high TFV-DP concentrations, DNA chain termination occurs resulting in dsDNA fragments that bind to few intercalating dye molecules resulting in low fluorescence. Thus, the fluorescence readout from the RESTRICT assay was used to estimate TFV-DP concentration in a patient's blood. […]
The RESTRICT assay was completed in 5 simple steps. […] Then 5 μL of 100 nM of HIV-1 RT was added to initiate the assay which was incubated at 37° C. for 30 min in a microplate reader (SpectraMax iD3, Molecular Devices). […]

HIV-1 RT [3] = biological target: T1, HIV-1 RT; assay: RESTRICT assay with TFV-DP in buffer at different dNTP concentrations; format: biochemical; conditions: 100, 300, 1560, 6250 nM dNTP, fixed 50 to 1 dNTP to template
Description: Optimal assay conditions were determined for RT activity in order to minimize assay time and reagent concentration, using RT enzyme obtained through the NIH AIDS Reagent Program, Division of AIDS, NIAID, NIH (Le Grice, S. F. J.; et al., Purification and Characterization of Human Immunodeficiency Virus Type 1 Reverse Transcriptase. In Methods in Enzymology; DNA Replication; Academic Press, 1995, 262, 130-144). Reactions were carried out in a buffer containing: 60 mM Tris (77-86-1, Sigma), 30 mM KCl (7447-40-7, Sigma), 8 mM MgCl2 (7786-30-3, Sigma), and 10 mM dithiothreitol (20-265, Sigma) buffered to pH 8.0 using HCl (7647-01-0, Acros Organics).
The DNA template has a 20 nt primer binding site complementary to the M13 phage DNA primer AGAGTTTGATCCTGGCTCAG (Catalog, Integrated DNA Technologies, Coralville, Iowa), set forth herein as SEQ ID NO:1, followed by TTCA repeats with a total template length of 200 nt. The DNA template was designed using NUPACK software (Zadeh, J. N. et al., NUPACK: Analysis and Design of Nucleic Acid Systems. J. Comput. Chem. 2011, 32 (1), 170-173) to preferentially include T bases because TFV-DP is a deoxyadenosine triphosphate (dATP) analog and thus will bind to T's in the DNA template. […]
Fluorescence from RESTRICT assay data was normalized to allow comparison of data points gathered at different dNTP concentrations as follows, […]

[4] = in vivo
[5] = cited from earlier work

Compound	Normalized fluorescence (%) (HIV-1 RT [1]; TFV-DP 85.4 nM (16.9 fmol/10^6 RBCs, low adherence, 1 dose per week))	Normalized fluorescence (%) (HIV-1 RT [1]; TFV-DP 768 nM (152.3 fmol/10^6 RBCs, high adherence, 7 doses per week))	Median fluorescence, RESTRICT assay (HIV-1 RT [2]; samples containing <700 fmol/punch TFV-DP (N=14))	Median fluorescence, RESTRICT assay (HIV-1 RT [2]; samples containing ≥700 fmol/punch TFV-DP (N=4))	IC50 of inhibition curve as dNTP concentration increases (HIV-1 RT [3])	clinical range for TFV-DP adherence, concentration in whole blood [4]	Median TFV-DP concentrations in RBCs ([5]; depending on adherence, LC/MS)	accumulation in red blood cells (RBCs) ([5]; in vivo)	half-life ([5]; red blood cells)	half-life ([5]; plasma)	detectable for up to ([5]; urine)
CC(Cn1cnc2c(N)ncnc21)OCP(=O)(O)OP(=O)(O)OP(=O)(O)O (stereo in doubt) [TFV-DP, tenofovir diphosphate]	89.0%	57.5%	51.3%	31.9%	shift right, towards higher IC50 values	75 to 850 nM	15-170 fmol/10^6 RBCs	25 fold	408 h	–	–
C[C@H](Cn1cnc2c(N)ncnc21)OCP(=O)(O)O [TFV, tenofovir]	–	–	–	–	–	–	–	–	–	15 h and 17 h	≤ 7 days
